Assay results reported in BigSolDB 2.1.

COC(=O)c1c(Cl)nn(C)c1S(=O)(=O)NC(=O)Nc1nc(OC)cc(OC)n1
solubility (mole fraction)
Conditions | 278.15 K | 283.15 K | 288.15 K | 293.15 K | 298.15 K | 303.15 K | 308.15 K | 313.15 K | 318.15 K | 323.15 K
in DMF | 0.000768 | 0.000905 | 0.00105 | 0.00123 | 0.00142 | 0.0016 | 0.00182 | 0.00204 | 0.00227 | 0.00254
in ethanol | 3.56e-05 | 4.18e-05 | 4.87e-05 | 5.64e-05 | 6.48e-05 | 7.29e-05 | 8.22e-05 | 9.25e-05 | 0.000103 | 0.000116
in isopropanol | 3.3e-06 | 3.57e-06 | 3.85e-06 | 4.17e-06 | 4.51e-06 | 4.93e-06 | 5.33e-06 | 5.71e-06 | 6.19e-06 | 6.64e-06
in water | 3.24e-07 | 3.38e-07 | 3.51e-07 | 3.66e-07 | 3.81e-07 | 3.96e-07 | 4.11e-07 | 4.26e-07 | 4.44e-07 | 4.62e-07
